Test results: patent US11759464B2, “Gonadotropin-releasing hormone antagonist dosing regimens for treating uterine fibroids and reducing menstrual blood loss” (ObsEva S.A., priority 2017, dated 2023)

Key:
Assay type in all cases: in vivo
[1] = system: healthy human female subjects; experiment: biomarkers of bone mineral density (creatinine-normalized deoxypyridinoline); settings: 100 mg/day + 1.0 mg/day E2 and 0.5 mg/day norethindrone acetate, urine (FIG. 25)
Procedure: (§1) To assess the effects of compound (II) on serum β17-estradiol concentration and menstrual blood loss, a total of 75 healthy human female subjects were divided into five treatment groups, as described in Table 1, below. The subjects were screened for a period of four weeks prior to the commencement of treatment with compound (II). At the conclusion of the four week screening period, the subjects in each treatment arm were administered an equivalent dosage of norethindrone acetate of 5 mg×3 times daily. This 15 mg/day dosage was administered for a total of 11 days so as to allow synchronization of menses among the subjects. The subjects were subsequently not treated for the ensuing 4 days. Following this withdrawal period, the subjects were treated with compound (II), with or without add-back therapy, once daily for 42 days according to the dosages set forth in Table 1. Following the 42-day treatment cycle, the subjects were further monitored for a period of 13 days. In addition to assessing the ability of compound (II) to modulate serum E2 and progesterone levels and to curtail menstrual bleeding, compound (II) was evaluated for its effects on biomarkers of bone mineral density (FIGS. 25-29). These markers include creatinine-normalized deoxypyridinoline (DPD), which is excreted in larger quantities when bone resorption is increased.

[2] = system: healthy human female subjects; experiment: menstrual bleeding pattern (amenorrhea) during treatment; settings: for Amenorrhea (no bleeding), subjects / Amenorrhea + spotting only, subjects: last 4 weeks of treatment
Procedure: as §1, with “To assess” for “In addition to assessing”, “effects” for “ability”, “on” for “to modulate serum E2 and progesterone levels and to curtail”, “blood loss, the volume of menstrual blood lost by each subject” for “bleeding, compound (II)”, “evaluated over the course of the entirety of the study, including the 11-day screening period, 4-day withdrawal period, 42-treatment period, and 13-day post-treatment evaluation period. Assessment of menstrual blood loss was conducted using an electronic diary method, as subjects recorded daily whether their bleeding” for “evaluated”, “each day was heavy, moderate, or light spotting.” for “its effects on biomarkers of bone mineral density (FIGS. 25-29). These markers include creatinine-normalized deoxypyridinoline (DPD), which is excreted in larger quantities when bone resorption is increased.”

[3] = system: healthy human female subjects; experiment: serum β17-estradiol (E2) concentration during 42-day once-daily treatment
Procedure: To assess the effects of compound (II) on serum β17-estradiol concentration and menstrual blood loss, a total of 75 healthy human female subjects were divided into five treatment groups, as described in Table 1, below. The subjects were screened for a period of four weeks prior to the commencement of treatment with compound (II). At the conclusion of the four week screening period, the subjects in each treatment arm were administered an equivalent dosage of norethindrone acetate of 5 mg×3 times daily. This 15 mg/day dosage was administered for a total of 11 days so as to allow synchronization of menses among the subjects. The subjects were subsequently not treated for the ensuing 4 days. Following this withdrawal period, the subjects were treated with compound (II), with or without add-back therapy, once daily for 42 days according to the dosages set forth in Table 1. Following the 42-day treatment cycle, the subjects were further monitored for a period of 13 days. As used herein, the add-back regime of 1.0 mg/day β17-estradiol and 0.5 mg/day norethindrone acetate is referred to as the “high-dose” or […] add-back dosage, while the add-back regime of 0.5 mg/day β17-estradiol and 0.1 mg/day norethindrone acetate was referred to as the “low-dose” or “LD” add-back dosage. This labeling convention is used throughout this Example and is additionally referred to in the Figures.

[4] = 100 mg daily + add-back E2/NETA 0.5 mg/0.1 mg
[5] = 100 mg daily + add-back E2/NETA 0.5 mg/0.1 mg, listed as compound (II)
[6] = 100 mg daily + add-back E2/NETA 1 mg/0.5 mg
[7] = 100 mg daily + add-back E2/NETA 1 mg/0.5 mg, listed as compound (II)
[8] = 100 mg daily, no add-back, listed as compound (II)
[9] = 200 mg daily + add-back E2/NETA 1 mg/0.5 mg
[10] = 200 mg daily + add-back E2/NETA 1 mg/0.5 mg, listed as compound (II)
[11] = 200 mg daily, no add-back, listed as compound (II)

- creatinine-normalized deoxypyridinoline (DPD), comparison among arms [1]: smallest increase
Structure (SMILES): COc1cc(F)c(-n2c(=O)[nH]c3csc(C(=O)O)c3c2=O)cc1OCc1c(OC)ccc(F)c1F [Compound (II), choline 3-[2-fluoro-5-(2,3-difluoro-6-methoxybenzyloxy)-4-methoxyphenyl]-2,4-dioxo-1,2,3,4-tetrahydrothieno [3,4d]pyrimidine-5-carboxylate]
- Amenorrhea (no bleeding), subjects [2, 4]: 21%
- Amenorrhea + spotting only, subjects [2, 4]: 57%
- Amenorrhea (no bleeding), subjects [2, 5]: at least 21%
- Amenorrhea + spotting only, subjects [2, 5]: at least 57%
- Amenorrhea (no bleeding), subjects [2, 6]: 53%
- Amenorrhea + spotting only, subjects [2, 6]: 93%
- Amenorrhea (no bleeding), subjects [2, 7]: at least 53%
- Amenorrhea + spotting only, subjects [2, 7]: at least 93%
- Amenorrhea (no bleeding), subjects ([2]; 100 mg daily, no add-back): 86%
- Amenorrhea + spotting only, subjects ([2]; 100 mg daily, no add-back): 93%
- Amenorrhea (no bleeding), subjects [2, 8]: at least 86%
- Amenorrhea + spotting only, subjects [2, 8]: at least 93%
- Amenorrhea (no bleeding), subjects [2, 9]: 33%
- Amenorrhea + spotting only, subjects [2, 9]: 60%
- Amenorrhea (no bleeding), subjects [2, 10]: at least 33%
- Amenorrhea + spotting only, subjects [2, 10]: at least 60%
- Amenorrhea (no bleeding), subjects ([2]; 200 mg daily, no add-back): 87%
- Amenorrhea + spotting only, subjects ([2]; 200 mg daily, no add-back): 100%
- Amenorrhea (no bleeding), subjects [2, 11]: at least 87%
- Amenorrhea + spotting only, subjects [2, 11]: 100%
- effect on menstrual bleeding ([2]; 100 or 200 mg/day with or without add-back (FIGS. 20-24)): capable of inducing sustained amenorrhea
- Median E2 level, E2 Week 1 ([3]; 100 mg daily + add-back E2/NETA 0.5 mg/0.1 mg, n = 14, after week 1): 25 pg/mL
- Median E2 level, E2 Week 6 ([3]; 100 mg daily + add-back E2/NETA 0.5 mg/0.1 mg, n = 14, after week 6): 40 pg/mL
- Median E2 level, E2 Week 1 ([3]; 100 mg daily + add-back E2/NETA 1 mg/0.5 mg, n = 15, after week 1): 35 pg/mL
- Median E2 level, E2 Week 6 ([3]; 100 mg daily + add-back E2/NETA 1 mg/0.5 mg, n = 15, after week 6): 34 pg/mL
- Median E2 level, E2 Week 1 ([3]; 100 mg daily, no add-back, n = 14, after week 1): 12 pg/mL
- Median E2 level, E2 Week 6 ([3]; 100 mg daily, no add-back, n = 14, after week 6): 18 pg/mL
- E2 levels, majority of subjects ([3]; 100 mg/day without add-back, each of days 8, 15 and 22): less than 20 μg/ml
- Median E2 level, E2 Week 1 ([3]; 200 mg daily + add-back E2/NETA 1 mg/0.5 mg, n = 15, after week 1): 27 pg/mL
- Median E2 level, E2 Week 6 ([3]; 200 mg daily + add-back E2/NETA 1 mg/0.5 mg, n = 15, after week 6): 25 pg/mL
- Median E2 level, E2 Week 1 ([3]; 200 mg daily, no add-back, n = 14, after week 1): 5 pg/mL
- Median E2 level, E2 Week 6 ([3]; 200 mg daily, no add-back, n = 14, after week 6): 3 pg/mL
- serum E2 concentrations, all subjects ([3]; 200 mg/day stand-alone arm, each of days 8, 15, 22, 29 and 36): less than 20 μg/ml
- effect on median serum E2 levels ([3]; 100 or 200 mg/day, 42-day treatment cycle (FIG. 1)): reduced in a dose-dependent manner
